The pIC50 is the IC50 on a negative log10 scale, so that one unit is a factor of ten. Low values mean a large IC50, high ones a small IC50.

The values that follow come from patent publication US20250101028A1, “HETEROCYCLIC COMPOUNDS, COMPOSITIONS THEREOF, AND METHODS OF TREATMENT THEREWITH” (BeiGene, Ltd., priority 2022, published 2025).

Test [1] addresses T1, GST-tagged GDP-loaded KRAS G12D (amin acids 1-188) (Homo sapiens, UniProt P01116, G12D).
T1 construct: GST-tagged GDP-loaded KRAS G12D (amin acids 1-188); made in house; host or cells: E. coli
Description: KRAS G12D probe displacement assay (TR-FRET). The format is binding. Particulars: displacement of biotinylated probe 2 from GDP-loaded KRAS G12D. The method, then:
KRAS WT and KRAS G12D Probe Displacement Assay
This assay was used to identify compounds which bind to GDP-loaded KRAS protein and are able to displace a biotinylated probe occupying the KRAS binding site. GST-tagged GDP-loaded WT KRAS (amino acids 1-188) and GST-tagged GDP-loaded KRAS G12D (amin acids 1-188) were expressed in E. coli and purified in house. All protein and reaction solutions were prepared in assay buffer containing 50 mM HEPES pH7.5, 50 mM NaCl, 1 mM MgCl2, 1 mM TCEP, 0.01% BSA, and 0.008% Brij-35. Purified WT KRAS (3 nM final concentration) or KRAS G12D protein (0.5 nM final concentration) was incubated with a 3-fold serially diluted compound in the assay plate (384 well microplate, black, Corning). Plates are incubated at 24° C. for 1 hr. Following the incubation, biotinylated probe 1 (60 nM final assay concentration) for WT KRAS and biotinylated probe 2 (4 nM final assay concentration) for KRAS G12D was added to the assay plate, respectively. After 1 hr incubation at 24° C., Mab Anti-GST-Tb cryptate (Cisbio) and Streptavidin-XL665 (Cisbio) were added and further incubated at 24° C. for another 1 hr. The TR-FRET signals (ex337 nm, em665 nm/620 nm) were read on BMG PHERAstar FSX instrument. The inhibition percentage of KRAS protein binding with biotinylated probe in presence of increasing concentrations of compounds was calculated based on the ratio of fluorescence at 665 nm to that at 620 nm. The IC50 value of each compound was calculated from fitting the data to the four-parameter logistic model by Dotmatics.

Test [2] has as its system pERK1/2(THR202/TYR204) level, SW620 cell line. Description: KRAS G12V pERK assay (HTRF). It counts as cell-based. Particulars: Homo sapiens, SW-620; SW620 cells, 2 hrs compound treatment. The method, then: (§1) SW620 cell line was used in this study. Cells were maintained in RPMI 1640 supplemented with 10% fetal bovine serum (Thermo Fisher), 50 units/mL penicillin and streptomycin (Thermo Fisher) and kept at 37° C. in a humidified atmosphere of 5% CO2 in air. Cells were reinstated from frozen stocks that were laid down within 30 passages from the original cells purchased. 40000 cells per well were seeded into a 96-well plate and incubated overnight. Cells were treated with a 10-point dilution series. The final compound concentration is from 0 to 10 M. After 2 hrs compound treatment, cells were lysed, and the pERK1/2(THR202/TYR204) level in the cell lysates was detected by HTRF kit (Cisbio). In brief, a total of 16 μL of cell lysate from each well of a 96-well plate was transferred to a 384-well white assay plate. Lysate from each well was incubated with 2 μL of Eu3+− cryptate (donor) labeled anti-phospho-ERK1/2 and 2 μL of D2 (acceptor) labeled anti-phospho-ERK1/2 antibodies (Cisbio) overnight in dark at room temperature. When donor and acceptor are in close proximity, excitation of the donor with laser triggers a Fluorescence Resonance Energy Transfer (FRET) towards the acceptor, which in turn fluoresces at 655 nm wavelength. FRET signals were measured using a PHERAstar FSX reader (BMG Labtech). IC50 determination was performed by fitting the curve of percent inhibition versus the log of the inhibitor concentration using Dotmatics.
For orientation: TR-FRET usually uses a lanthanide donor and a delayed reading to cut background.

Test [3] deals with T2, GST-tagged GDP-loaded KRAS G12V (amino acids 1-169) (Homo sapiens, UniProt P01116, G12V).
T2 construct: GST-tagged GDP-loaded KRAS G12V (amino acids 1-169); made in house; host or cells: E. coli
Description: KRAS G12V probe displacement assay (TR-FRET). Particulars: displacement of biotinylated probe 2 from GDP-loaded KRAS G12V. The format is binding. The essentials:
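GST-tagged GDP-loaded KRAS 1-169 (WT 3 nM; G12V 2 nM final) preincubated 1 h at 24 °C with serially diluted compound in HEPES pH 7.5 buffer, then biotinylated probe added (probe 1 60 nM for WT; probe 2 2.5 nM for G12V), 1 h. Anti-GST-Tb/streptavidin-XL665 TR-FRET 665/620 ratio; IC50 by four-parameter fit.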

Test [4] has as its system pERK1/2(THR202/TYR204) level, AsPC-1 cell line. Description: KRAS G12D pERK assay (HTRF). Particulars: Homo sapiens, ASPC1; AsPC-1 cells, 2 h compound treatment. The format is cell-based. As to the method: as §1, with “AsPC-1” for “SW620”, “RPMI-1640” for “RPMI 1640”, “30000” for “40000”, “μM.” for “M.”, “h” for “hrs”

Each structure is given as a SMILES string. pIC50: −log10 of the molar value.

T2 sequence (P01116 1-169 isoform P01116-2 G12V): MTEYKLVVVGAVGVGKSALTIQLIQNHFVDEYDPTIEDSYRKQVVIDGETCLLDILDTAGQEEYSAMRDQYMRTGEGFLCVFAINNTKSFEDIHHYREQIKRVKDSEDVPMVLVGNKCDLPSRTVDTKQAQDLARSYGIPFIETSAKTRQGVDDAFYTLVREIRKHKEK
T1 sequence (P01116 1-188 isoform P01116-2 G12D): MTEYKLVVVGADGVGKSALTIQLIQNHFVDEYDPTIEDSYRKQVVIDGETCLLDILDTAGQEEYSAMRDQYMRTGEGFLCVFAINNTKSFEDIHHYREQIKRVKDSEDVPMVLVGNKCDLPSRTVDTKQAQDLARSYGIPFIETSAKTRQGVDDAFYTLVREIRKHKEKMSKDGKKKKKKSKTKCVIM

Consider `C[C@@]1(O)CCCN(c2nc(OC[C@@]34CCCN3C[C@H](F)C4)nc3c(F)c(-c4cc(N)cc(Cl)c4C(F)(F)F)ncc23)C1` [Example 128, (R)-1-(7-(5-amino-3-chloro-2-(trifluoromethyl)phenyl)-8-fluoro-2-(((2R,7aS)-2-fluorotetrahydro-1H-pyrrolizin-7a(5H)-yl)methoxy)pyrido[4,3-d]pyrimidin-4-yl)-3-methylpiperidin-3-ol], for which the pIC50 was 8.92 in test [1], 7.08 in test [2], 8.59 in test [3] and 7.12 in test [4].
`C[C@@H]1C[C@@H](C#N)CCN1c1nc(OC[C@@]23CCCN2C[C@H](F)C3)nc2c(F)c(-c3ccc(F)c4sc(N)c(C#N)c34)c(C(F)(F)F)cc12` [Example 100, (2R,4S)-1-(7-(2-amino-3-cyano-7-fluorobenzo[b]thiophen-4-yl)-8-fluoro-2-(((2R,7aS)-2-fluorotetrahydro-1H-pyrrolizin-7a(5H)-yl)methoxy)-6-(trifluoromethyl)quinazolin-4-yl)-2-methylpiperidine-4-carbonitrile]: the pIC50 was 9.47 in test [1], 7.74 in test [2], 9.13 in test [3] and 7.25 in test [4].
